Results taken from US11674967B2, “Method of identifying potential inhibitors of APO TNFα trimers” (UCB BIOPHARMA SRL, priority 2015, dated 2023).

Tests used:
Mouse TNFα = biological target: T1, Mouse TNFα (Mus musculus, UniProt P06804); assay: Monomer exchange mass spectrometry, compound pre-incubated with m-TNFα; assay type: binding; conditions: 1:1 complex mixed with h-TNFα
T1 construct: made in house
T1 sequence (P06804 80-235 limits assumed): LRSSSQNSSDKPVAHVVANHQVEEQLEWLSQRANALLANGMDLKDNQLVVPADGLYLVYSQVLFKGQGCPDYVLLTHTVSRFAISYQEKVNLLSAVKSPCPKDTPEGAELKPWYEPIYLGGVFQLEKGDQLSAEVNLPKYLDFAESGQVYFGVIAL
Procedure: The experiment was then repeated in reverse. Excess compound of formula 3 was incubated with Mouse TNFα, the excess compound of formula (3) was then removed. Mass Spectral analysis confirmed that a 1:1 complex had been formed between the compound of formula (3) and m-TNFα. Human TNFα was now added to this sample which was then subjected to mass spectral analysis over a number of hours. […] In addition there was evidence of formation of the ligated human homotrimer (H3L), the unligated mouse homotrimer (M3) and for unbound compound of formula (3) (L). […] Once this complex (M3L) has dissociated, monomer subunit exchange between the H3 and M3 species proceeds and the liberated ligand is then able to form complexes with all 4 trimer species present in solution.

TNFα = TNFα (Homo sapiens, UniProt P01375); assay: Monomer exchange mass spectrometry, compound pre-incubated with h-TNFα; assay type: binding; parameters: made in house; conditions: 1:1 complex mixed with m-TNFα, 18 hours
Sequence of TNFα (P01375 77-233 limits assumed): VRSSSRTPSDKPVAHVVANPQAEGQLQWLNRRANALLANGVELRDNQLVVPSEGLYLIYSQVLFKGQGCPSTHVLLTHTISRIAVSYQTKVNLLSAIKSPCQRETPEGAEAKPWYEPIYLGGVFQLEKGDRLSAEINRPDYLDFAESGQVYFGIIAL
Procedure: Human and mouse homotrimers of TNFα (H3 and M3 respectively) were incubated together and aliquots of the solution monitored by mass spectrometry appearance of the cross species heterotrimers. The mass spectrometric analysis confirmed that monomer exchange between native TNFα trimers was able to occur in solution. The exchange rate was slow and was monitored over a course of 4 hours before full equilibration was achieved (data not shown). The mechanism is unknown, although is it unlikely to involve formation of the dimeric forms as none of these were observed. Monomer exchange is likely to be occurring between pure human and mouse trimers, the mixing of mouse and human trimers simply makes this exchange visible by mass spectrometry.
In a second series of experiments an excess of the compound of formula (3) was incubated with Human TNFα, the excess compound of formula (3) was then removed. Mass Spectral analysis confirmed that a 1:1 complex had been formed between the compound of formula (3) and h-TNFα. Mouse TNFα was now added to this sample which was then subjected to mass spectral analysis over a number of hours. After 18 hours there was no observed change in the composition of the sample. […] In addition, there was no evidence of formation of the M3L species and no evidence of formation of the unligated H3 species. […]

[1] = tested on: hTNFα-induced neutrophil recruitment; assay: Neutrophil recruitment in mice, compound pre-mixed with hTNFα, i.p.; assay type: in vivo, Balb/c mice; conditions: for neutrophil recruitment vs TNFα in the absence of the compound: sample 1, ratio compound:TNFα 0.1:1, i.p.
Procedure: In separate studies, compounds of formula (3) and formula (15) were mixed with 20 μM solutions of TNFα dissolved in phosphate buffered saline (PBS) to a concentration of 2 μM, 20 μM and 200 μM. The ratio of each compound to TNFα was, therefore, 0.1:1 (sample 1), 1:1 (sample 2) and 10:1 (sample 3). […] This process separates protein bound compound and free compound. A control sample containing PBS only was processed in the same way to provide a vehicle control for the study. The concentration of eluted protein was determined using a Nanodrop (ND-1000). The TNFα: compound complexes were diluted in PBS to a concentration for injection of 0.03 μg/kg
For the study, typically, each group contained 10 male Balb/c mice (Charles River) apart from an anti-human TNFα antibody positive control, which used a set of 5 mice.
Compound only mice were also included in the study to assess the effect of compound on neutrophil recruitment.
All mice were killed by cervical dislocation two hours post-injection of hTNFα (t=2 h) and the peritoneal cavity was lavaged with 3 mL of FACS buffer (500 mL PBS containing 2 g bovine serum albumin, 6 mL HEPES buffer and […]). Lavage fluid was aspirated and neutrophil numbers were assessed by staining cells with anti-Gr1 PE and anti-CD45 FITC by FACS as detailed below.
100 μL of lavage fluid from each sample was aliquoted into FACS tubes. A FACS cocktail was made up using anti-GR-1 PE (BD cat #553128 Lot #75542) at 1 in 39 dilution and anti-CD45 FITC (BD cat #553080 Lot #80807) at 1 in 19 dilution in FACS buffer. Fc block (BD Cat #553142 Lot #87810) was prepared 1 in 10 with FACS buffer and 10 μL added to each sample 5 minutes before adding the antibody cocktail. […] Samples were then left for 20 mins on ice. 1 mL of FACS Lyse solution (BD Cat #349202 Lot #29076, diluted 1:10 in dH2O) was added to each tube, mixed and left at room temperature for 5 minutes. 1 mL of FACS Buffer was then added to each tube and centrifuged at 400 g for 5 minutes. The FACS buffer was then carefully poured off and the tip of the tube dabbed on absorbent paper to leave the tube completely dry. Then […] of 1 in 10 Reference Bead solution (Sigma cat #P2477 Lot #116K1612) diluted in FACS buffer was added to each tube.
Samples were analysed using FACScalibur II and FloJo software.

[2] = sample 2, ratio compound:TNFα 1:1, i.p.
[3] = sample 3, ratio compound:TNFα 10:1, i.p.

## Cc1ccc(C)c(Cn2c(C(O)c3ccncc3)nc3ccccc32)c1 (stereo not shown) [Compound 3]
Mouse TNFα
  off-rate when complexed with m-TNFα: measurable off-rate
TNFα
  off-rate when complexed with h-TNFα: no measurable off-rate
[1]
  neutrophil recruitment vs TNFα in the absence of the compound: not significantly different
[1]; [2]
  inhibition of neutrophil recruitment: 86%
[1]; [3]
  inhibition of neutrophil recruitment: 85%

## Cc1ccc(C)c(Cn2c(C(O)c3ccncc3)nc3ccc(-c4cnn(C)c4)cc32)c1 (stereo not shown) [Compound 15]
Mouse TNFα
  off-rate when complexed with m-TNFα: no measurable off-rate
TNFα
  off-rate when complexed with h-TNFα: no measurable off-rate
[1]
  neutrophil recruitment vs TNFα in the absence of the compound: not significantly different
[1]; [2]
  inhibition of neutrophil recruitment: 101%
[1]; [3]
  inhibition of neutrophil recruitment: 102%
